Measurements as given in patent publication US20170119776A1, “CHIRAL 2,5-DISUBSTITUTED CYCLOPENTANECARBOXYLIC ACID DERIVATIVES AND USE THEREOF” (BAYER PHARMA AKTIENGESELLSCHAFT, priority 2014, published 2017).

Assays:
Assay type in all cases: biochemical
MMP-13 = target: T1, MMP-13 (Homo sapiens, UniProt P45452); test: In vitro MMP-13 inhibition test
T1 construct: purchased R&D Systems 511-MP
Description: (§1) The activity strength of the compounds according to the invention towards other MMPs (and therefore their selectivity) is likewise ascertained in in vitro inhibition tests. The MMP-mediated amidolytic cleavage of a suitable peptide substrate also leads here to a fluorescent light increase. The signal intensity of the fluorescent light is directly proportional to the enzyme activity. The active concentration of a test compound at which half of the enzyme is inhibited (50% signal intensity of the fluorescent light) is given as IC50 value.
(§2) Recombinant MMP-13 (R&D Systems, 511-MP) is chemically activated in accordance with the manufacturer's instructions using APMA. 1 μl of the test compound to be analysed (as a solution in DMSO, suitable concentrations e.g. 1 nM to 30 μM) is pipette into 24 μl of activated enzyme (final concentration e.g. 0.1 nM) in reaction buffer (50 mM Tris/HCl pH 7.5, 10 mM CaCl2, 150 mM NaCl, 0.05% Brij®-35) in a white 384-hole microtiter plate (MTP). The enzymatic reaction is started by adding the intramolecularly quenched substrate Mca-Pro-Leu-Gly-Leu-Dpa(Dnp)-Ala-Arg-NH2 (final concentration e.g. 10 μM; R&D Systems, ES-001), such that a total test volume of 50 μl results. The progress of the MMP-13 reaction is measured by measuring the fluorescence intensity (excitation 320 nm, emission 410 nm) over a suitable period (e.g. over 120 min at a temperature of 32° C.).
(§3) The IC50 values were determined for racemates and enantiomers from differently generated DMSO stock solutions. Whereas an automatically produced DMSO stock solution from the internal substance logistics was used for racemates by means of a standard method, in the case of enantiomers a freshly produced, manually prepared DMSO stock solution was used in each case for a more precise direct comparison of the enantiomers with one another.

MMP-2 of the rat = test: In vitro MMP-2 inhibition test of the rat
Description: as §1
as §2, with “Recombinant MMP-2 of the rat” for “Recombinant MMP-13”, “Systems, 924-MP)” for “Systems, 511-MP)”, “APMA. […]” for “APMA. 1”, “is pipetted” for “is pipette”, “e.g. 1” for “e.g. 0.1”, “the MMP-2” for “the MMP-13”
Tables 3A and 3B below give the IC50 values from these tests for the inhibition of rodent MMPs for representative embodiment examples of the present invention and also for two structurally related comparison compounds from the prior art (as racemate and separated enantiomer)→(in part as average values from several independent individual determinations and rounded to two significant places). The IC50 values were determined for racemates and enantiomers from differently generated DMSO stock solutions. Whereas an automatically created DMSO stock solution from the internal substance logistics was used for racemates by means of a standard method, in the case of enantiomers, in each case a freshly produced, manually prepared DMSO stock solution was used for a more precise direct comparison of the enantiomers with one another.

MMP-7 = target: T2, MMP-7 (Homo sapiens, UniProt P09237); test: In vitro MMP-7 inhibition test
T2 construct: purchased R&D Systems 907-MP
T2 sequence (P09237 95-267): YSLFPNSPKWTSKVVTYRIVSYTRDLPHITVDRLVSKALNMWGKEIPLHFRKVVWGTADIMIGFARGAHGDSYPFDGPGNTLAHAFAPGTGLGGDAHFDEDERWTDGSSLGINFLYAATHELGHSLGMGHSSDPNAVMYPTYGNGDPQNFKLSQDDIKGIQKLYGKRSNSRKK
Description: as §1
as §2, with “MMP-7” for “MMP-13”, “907-MP)” for “511-MP)”, “0.5” for “0.1”
as §3

Compound | IC50 (MMP-13) | IC50 (MMP-2 of the rat) | IC50 (MMP-7)
O=C(O)[C@H]1[C@H](Cn2nnc3ccccc3c2=O)CC[C@@H]1C(=O)c1ccc(-c2ccc(Cl)cc2)cc1 (racemic) [Comparative Example A-1, (1RS,2RS,5SR)-2-[(4′-chlorobiphenyl-4-yl)carbonyl]-5-[(4-oxo-1,2,3-benzotriazin-3(4H)-yl)methyl]cyclopentanecarboxylic acid (racemate)] | 0.0018 µM | 0.0013 µM | 0.31 µM
CCCCCOc1ccc(C(=O)CC(CCn2nnc3ccccc3c2=O)C(=O)O)cc1 (racemic) [Comparative Example B-1, (+/−)-4-Oxo-2-[2-(4-oxo-1,2,3-benzotriazin-3(4H)-yl)ethyl]-4-[4-(pentyloxy)phenyl]butanoic acid (racemate)] | 1.8 µM | 0.61 µM | > 40 µM
O=C(O)[C@H]1[C@H](Cn2nnc3ccccc3c2=O)CC[C@@H]1C(=O)c1ccc(OCc2ccccc2)cc1 (racemic) [Example 1, (+/−)-(1RS,2RS,5SR)-2-[4-(Benzyloxy)benzoyl]-5-[(4-oxo-1,2,3-benzotriazin-3(4H)-yl)methyl]cyclopentanecarboxylic acid (racemate)] | 0.03 µM | 0.033 µM | 0.5 µM
CCCCCOc1ccc(C(=O)CC(CCn2nnc3ccccc3c2=O)C(=O)O)cc1 (single isomer, unassigned; enantiomer 1) [Comparative Example B-2, (+)-4-Oxo-2-[2-(4-oxo-1,2,3-benzotriazin-3(4H)-yl)ethyl]-4-[4-(pentyloxy)phenyl]butanoic acid (enantiomer 1)] | 0.36 µM | 0.145 µM | 22.5 µM
O=C(O)[C@@H]1[C@@H](Cn2nnc3ccccc3c2=O)CC[C@H]1C(=O)c1ccc(-c2ccc(Cl)cc2)cc1 (single isomer, unassigned; enantiomer 2) [Comparative Example A-3, (1RS,2RS,5SR)-2-[(4′-Chlorobiphenyl-4-yl)carbonyl]-5-[(4-oxo-1,2,3-benzotriazin-3(4H)-yl)methyl]cyclopentanecarboxylic acid (enantiomer 2)] | 0.00082 µM | < 0.00061 µM | 0.145 µM
O=C(O)[C@H]1[C@H](Cn2nnc3ccccc3c2=O)CC[C@@H]1C(=O)c1ccc(OCc2ccccc2)cc1 [Example 2, (+)-(1S,2S,5R)-2-[4-(Benzyloxy)benzoyl]-5-[(4-oxo-1,2,3-benzotriazin-3(4H)-yl)methyl]cyclopentanecarboxylic acid] | 0.0145 µM | 0.0165 µM | 0.42 µM
